Laboratory results taken from patent US8895585B2, “Nicotinamide derivative or salt thereof” (FUJIFILM Corporation, priority 2010, dated 2014).

These molecules were tested against T1, glutathione S-transferase (GST)-fused full-length human Syk protein (Homo sapiens, UniProt P43405) (assay: Syk enzyme assay). Settings: Syk enzyme assay, Test Example 1; read-out: IC50 of Syk-inhibitory activity.
T1 construct: (GST)-fused full-length human Syk protein; GST (glutathione S-transferase); purchased Carna Biosciences
Format: biochemical
Method in brief: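 GST-tagged full-length human Syk (baculovirus) preincubated with compound 15 min at room temperature (pH 7.0, 10 mM MgCl2), then reacted 40 min with 0.4 μM biotinylated peptide substrate and 27 μM ATP (final). Phosphorylation read by HTRF (615/665 nm) after EDTA stop; IC50 reported.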

SMILES	IC50 [nM]
COc1cccc(-c2cc(Nc3nc(N[C@@H](CN)CC(C)C)c(F)cc3C(N)=O)ccn2)c1 [Example 006-325, (R)-6-((1-amino-4-methylpentan-2-yl)amino)-5-fluoro-2-((2-(3-methoxyphenyl)pyridin-4-yl)amino)nicotinamide]	< 10
CCCOc1cc(Nc2nc(NC3CCCCC3N)c(F)cc2C(N)=O)ccn1 (centres unmarked) [Example 002-082]	< 10
NC(=O)c1cc(F)c(NC2CCCCC2N)nc1Nc1ccc2c(cnn2Cc2ccccc2)c1 (centres unmarked) [Example 002-036]	50 to 100
CN(C)c1ccc2cc(Nc3nc(N[C@@H]4CCCC[C@@H]4N)c(F)cc3C(N)=O)cnc2c1 [Example 004-126]	10 to 50
COCCOc1ncc(Nc2nc(N[C@@H]3CCCC[C@@H]3N)c(F)cc2C(N)=O)cc1Cl [Example 006-571, 6-(((1R,2S)-2-aminocyclohexyl)amino)-2-((5-chloro-6-(2-methoxyethoxy)pyridin-3-yl)amino)-5-fluoronicotinamide]	50 to 100
CCOCCOCCOc1nccc2c(Nc3nc(N[C@@H]4CCCC[C@@H]4N)c(F)cc3C(N)=O)cccc12 (relative stereo) [Example 004-158, 6-(cis-2-aminocyclohexylamino)-2-((1-(2-(2-ethoxyethoxy)ethoxy)isoquinolin-5-yl)amino)-5-fluoronicotinamide]	10 to 50
CN(C)C(=O)Cn1ccc2c(Nc3nc(N[C@@H]4CCCC[C@@H]4N)c(F)cc3C(N)=O)ccnc21 [Example 029-004]	< 10
Cc1ccccc1C(=O)Nc1cncc(Nc2nc(NC3CCCCC3N)c(F)cc2C(N)=O)c1 (centres unmarked) [Example 027-023]	50 to 100
NC(=O)c1cc(F)c(NC2CCCCC2N)nc1Nc1ccnc(-c2ccc3c(c2)NC(=O)CO3)c1 (centres unmarked) [Example 002-178]	< 10
C[C@H](N)[C@@H](CC1CC1)Nc1nc(Nc2ccc3nccnc3c2)c(C(N)=O)cc1F [Example 006-347, 6-(((2R,3S)-3-amino-1-cyclopropylbutan-2-yl)amino)-5-fluoro-2-((quinoxalin-6-yl)amino)nicotinamide]	10 to 50
COc1ccccc1C(=O)Nc1cncc(Nc2nc(NC3CCCCC3N)c(F)cc2C(N)=O)c1 (centres unmarked) [Example 027-024]	10 to 50
CCC[C@@H](Nc1nc(Nc2ccc3c(cnn3CC(F)F)c2)c(C(N)=O)cc1F)[C@H](C)N [Example 006-424, 6-(((2S,3R)-2-aminohexan-3-yl)amino)-2-((1-(2,2-difluoroethyl)-1H-indazol-5-yl)amino)-5-fluoronicotinamide]	10 to 50
COc1ccc(S(=O)(=O)Nc2cccc3cc(Nc4nc(N[C@@H]5CCCC[C@@H]5N)c(F)cc4C(N)=O)cnc23)cc1 (relative stereo) [Example 41-5, 6-(cis-2-aminocyclohexylamino)-5-fluoro-2-((8-(4-methoxyphenylsulphonamide)quinolin-3-yl)amino)nicotinamide]	50 to 100
CCOCCOCCn1cc2ccc(Nc3nc(NC4CCCCC4N)c(F)cc3C(N)=O)cc2n1 (centres unmarked) [Example 002-045]	10 to 50
CC(C)C[C@@H](Nc1nc(Nc2ccc3c(c2)c(N2CCOCC2)nn3C)c(C(N)=O)cc1F)[C@H](C)N [Example 006-562, 6-(((2S,3R)-2-amino-5-methylhexan-3-yl)amino)-5-fluoro-2-((1-methyl-3-morpholino-1H-indazol-5-yl)amino)nicotinamide]	< 10
NC(=O)c1cc(F)c(NC2CCCCC2N)nc1Nc1ccc2nc(OCC3CCCO3)ccc2c1 (centres unmarked) [Example 002-112]	< 10
NC(=O)c1cc(F)c(N[C@H](Cc2cnc[nH]2)C(N)=O)nc1Nc1ccc2ncccc2c1 [Example 012-035, (R)-6-((1-amino-3-(1H-imidazol-5-yl)-1-oxopropan-2-yl)amino)-5-fluoro-2-((quinolin-6-yl)amino)nicotinamide]	100 to 1000
NC(=O)c1cc(F)c(N[C@@H]2CCCC[C@@H]2N)nc1Nc1cc(C(F)(F)F)cc2c1ccn2CCN1CCOCC1 [Example 004-087]	< 10
COCCn1ccc2c(Nc3nc(N[C@@H]4CCCC[C@@H]4N)c(F)cc3C(N)=O)cc(C(F)(F)F)cc21 [Example 004-088]	< 10

SMILES	IC50 [nM]
C[C@H](N)[C@@H](CC1CC1)Nc1nc(Nc2ccc3cnn(CC(F)F)c3c2)c(C(N)=O)cc1F [Example 006-438, 6-(((2R,3S)-3-amino-1-cyclopropylbutan-2-yl)amino)-2-((1-(2,2-difluoroethyl)-1H-indazol-6-yl)amino)-5-fluoronicotinamide]	10 to 50
CCn1ncc2ccc(Nc3nc(N[C@H](CC4CC4)[C@H](C)N)c(F)cc3C(N)=O)cc21 [Example 006-436]	10 to 50
NC(=O)c1cc(F)c(NC2CCCCC2N)nc1Nc1cncc(C2=CCCCC2)c1 (centres unmarked) [Example 002-095]	< 10
COc1cccc(-c2cc(Nc3nc(N[C@@H](CN)CC(C)C)c(F)cc3C(N)=O)ccn2)c1F [Example 006-327, (R)-6-((1-amino-4-methylpentan-2-yl)amino)-5-fluoro-2-((2-(2-fluoro-3-methoxyphenyl)pyridin-4-yl)amino)nicotinamide]	< 10
NC(=O)c1cc(F)c(N[C@@H]2CCCC[C@@H]2N)nc1Nc1cnc2cc(-n3nccn3)ccc2c1 (relative stereo) [Example 004-209, 2-((7-(2H-1,2,3-triazol-2-yl)quinolin-3-yl)amino)-6-(cis-2-aminocyclohexylamino)-5-fluoronicotinamide]	< 10
CCNc1nc(Nc2cnc3ccccc3c2)c(C(N)=O)cc1F [Example 006-020, 6-(ethylamino)-5-fluoro-2-(quinolin-3-ylamino)nicotinamide]	100 to 1000
NC(=O)c1cc(F)c(N[C@@H]2CCCC[C@@H]2N)nc1Nc1ccc2[nH]c(C(=O)NCc3ccccc3)cc2c1 (relative stereo) [Example 029-018, 5-((6-(cis-2-aminocyclohexylamino)-3-carbamoyl-5-fluoropyridin-2-yl)amino)-N-benzyl-1H-indole-2-carboxamide]	< 10
NC(=O)c1cc(F)c(NCCc2cnc[nH]2)nc1Nc1ccc2ncccc2c1 [Example 012-014]	100 to 1000
CCc1nn(C)c2ccc(Nc3nc(N[C@H](CC(C)C)[C@H](C)N)c(F)cc3C(N)=O)cc12 [Example 006-538, 6-(((2S,3R)-2-amino-5-methylhexan-3-yl)amino)-2-((3-ethyl-1-methyl-1H-indazol-5-yl)amino)-5-fluoronicotinamide]	< 10
CC(C)c1cncc(Nc2nc(NC3CCCCC3N)c(F)cc2C(N)=O)c1 (centres unmarked) [Example 002-039]	10 to 50
COc1ccc(-c2cncc(Nc3nc(N[C@@H](CN)CC(C)C)c(F)cc3C(N)=O)c2)c(F)c1 [Example 006-319, (R)-6-((1-amino-4-methylpentan-2-yl)amino)-5-fluoro-2-((5-(2-fluoro-4-methoxyphenyl)pyridin-3-yl)amino)nicotinamide]	10 to 50
C[C@H](N)[C@H](Nc1nc(Nc2cnc3c(c2)OCO3)c(C(N)=O)cc1F)C1CC1 [Example 006-514, 2-([1,3]dioxolo[4,5-b]pyridin-6-ylamino)-6-(((1R,2S)-2-amino-1-cyclopropylpropyl)amino)-5-fluoronicotinamide]	50 to 100
CCC(Nc1nc(Nc2ccc3ncccc3c2)c(C(N)=O)cc1F)[C@@H](N)CC (stereo partly drawn) [Example 006-150, 6-(((4S)-4-aminohexan-3-yl)amino)-5-fluoro-2-(quinolin-6-ylamino)nicotinamide]	10 to 50
COc1cc(Nc2nc(N[C@H](c3ccccc3)[C@@H](N)c3ccccc3)c(F)cc2C(N)=O)cc(OC)c1 (racemic) [Example 006-137, 6-(((1R,2S)-2-amino-1,2-diphenylethyl)amino)-2-((3,5-dimethoxyphenyl)amino)-5-fluoronicotinamide 6-(((1S,2R)-2-amino-1,2-diphenylethyl)amino)-2-((3,5-dimethoxyphenyl)amino)-5-fluoronicotinamide]	10 to 50
NC(=O)c1cc(F)c(N[C@@H]2CCCC[C@@H]2N)nc1Nc1ccc(N2CC3(COC3)C2)nc1 [Example 006-467, 2-((6-(2-oxa-6-azaspiro[3.3]heptane-6-yl)pyridin-3-yl)amino)-6-(((1R,2S)-2-aminocyclohexyl)amino)-5-fluoronicotinamide]	10 to 50
CC(C)(C)C(=O)Nc1cccc2cc(Nc3nc(N[C@@H]4CCCC[C@@H]4N)c(F)cc3C(N)=O)cnc12 (relative stereo) [Example 41-11, 6-(cis-2-aminocyclohexylamino)-5-fluoro-2-((8-pivalamidequinolin-3-yl)amino)nicotinamide]	< 10
NC(=O)c1cc(F)c(NC2CCCC2N)nc1Nc1ccc2ncccc2c1 (stereo not drawn) [Example 006-175, 6-((cis-2-aminocyclopentyl)amino)-5-fluoro-2-(quinolin-6-yl)amino)nicotinamide]	10 to 50
COCCn1nc(C(C)C)c2cc(Nc3nc(N[C@@H]4CCCC[C@@H]4N)c(F)cc3C(N)=O)ccc21 [Example 006-463, 6-(((1R,2S)-2-aminocyclohexyl)amino)-5-fluoro-2-((3-isopropyl-1-(2-methoxyethyl)-1H-indazol-5-yl)amino)nicotinamide]	< 10

Same assay, conditions: read-out: Syk-inhibitory activity (IC50)

SMILES	IC50 [nM]
CNc1nc(Nc2cc(OC)cc(OC)c2)c(C(N)=O)cc1F [Example 23, 2-(3,5-dimethoxyphenylamino)-5-fluoro-6-(methylamino)nicotinamide]	≤ 1000
COc1cc(Nc2nc(NC(C(N)=O)C(C)C)c(F)cc2C(N)=O)cc(OC)c1 (centres unmarked) [Example 32, 6-(1-aminocarbonyl-2-methylpropylamino)-2-(3,5-dimethoxyphenylamino)-5-fluoro nicotinamide]	≤ 1000
COc1cc(Nc2nc(NC(C(N)=O)c3ccccc3)c(F)cc2C(N)=O)cc(OC)c1 (centres unmarked) [Example 16-9, 6-((2-amino-2-oxo-1-phenylethyl)amino)-2-((3,5-dimethoxyphenyl)amino)-5-fluoronicotinamide]	≤ 1000
NC(=O)c1cc(F)c(N[C@H](Cc2ccccc2)C(N)=O)nc1Nc1cnc2ccccc2c1 [Example 12-25]	≤ 1000
